The values below come from patent US11370769B2, “TRPC5 inhibitors and methods of using same” (BOARD OF REGENTS OF THE UNIVERSITY OF NEBRASKA, priority 2017, dated 2022).

One data set concerns podocytes. As to the kind of experiment: ROS assay in wild-type podocytes treated with AngII. The class given is cell-based, mouse. The note with it: WT podocytes, AngII 10 μM, 30 μM compound, 3 hours. The procedure:
Podocyte culture and viral transduction: Immortalized mouse podocytes were cultured as previously described (10, 11). Podocyte viral transduction was performed using lentivirus as previously described (10, 11). Briefly, lentivirus production was carried out in HEK293T cells at 60% confluence, and viral particles were collected two days after transfection and purified by centrifugation at 1,000 rcf for 5 min. Purified lentivirus was frozen at −80° C. until further use. Podocytes were transduced with lentivirus after 7 days of differentiation, and assays were performed 5 days after viral transduction.
ROS and cell viability assays: For ROS experiment in FIG. 4A, mature podocytes were cultured as previously described. Cells were incubated with CellRox Deep Red reagent (ThermoFisher) for 30 min at 37° C. Then cells were treated with DMSO, 10 μM angiotensin II, 10 μM angiotensin II with 30 μM AC1903, or 10 μM angiotensin II with 30 μM N-acetyl-L-cysteine (NAC) for 3 hours at 37° C. Cells were washed with PBS twice and fluorescence images were observed using Olympus IX71 microscopy. Fluorescence intensities were then analyzed using ImageJ software.

Another data set concerns AT1R Tg rats. The experiment in a line: AT1R Tg rat model of progressive FSGS. The class given is in vivo. On the procedure:
Animals and chemicals: Littermates of wild-type (WT) and AT1R TgNeph-hAT1R/185 transgenic (AT1R Tg) rats were housed under a controlled environment with a 12-hour light-dark cycle and access to food and water ad libitum, unless otherwise described. All animal experiments were performed in accordance to the guidelines established and approved by the Animal Care and Use Committee at Brigham and Women's Hospital, Harvard Medical School (Animal Protocol No. 01538). AT1R Tg rats were placed in the Onset cohort when measured proteinuria was >5 mg/day (at approximately 12 weeks of age) on two separate 24-hour urine collections. AT1R Tg rats were placed in the Advanced cohort when measured proteinuria was >25 mg/day (at approximately 18 weeks of age) on two separate 24-hour urine collections. These thresholds were determined after detailed histologic and phenotypic characterization of AT1R Tg rats compared to WT littermates (all combined, n=91 WT rats and n=122 AT1R Tg rats were studied). The Dahl salt-sensitive (S) inbred strain is maintained at University of Mississippi Medical Center (UMMC) and was originally obtained from University of Toledo-College of Medicine (SS/Jr). All animal experiments performed at UMMC were in accordance to the guidelines established and approved by the Institutional Animal Care and Use Committee. Animals used for this studied were provided either low-salt diet [TD7034, 0.3% NaCl and/or high-salt diet [TD94217, 2.0% NaCl] from Harlan Teklad, Madison, Wis. For onset study, at 4 weeks of age, groups of age-matched male S were weaned to the low-salt diet and divided into two groups: vehicle (n=8) and AC1903 groups (n=8). At 6 weeks of age, both groups were placed on the high-salt diet and concurrently treated with either vehicle or AC1903 for 1-week (Onset). For Advanced study, similarly at 4 weeks of age, groups of age-matched male S were weaned to the low-salt diet and divided into two groups: vehicle (n=9) and AC1903 groups (n=11). At 6 weeks of age, both groups were placed on the high-salt diet. At week 7, concurrent with high-salt diet, animals were treated with either vehicle or AC1903 for 1-week (Advanced). At the conclusion of each study, animals were initially anesthetized under 2-3% isoflurane/O2 gas, a catheter attached to a fluid filled pressure transducer was placed in the aorta, isoflurane gas was reduced to 1.5%, and mean arterial pressure was measured for ˜5 min period using PowerLab 4/30 system (ADI Instruments, Co) as done previously. All chemicals were purchased from Sigma-Aldrich unless otherwise described.
Chemical preparation and IP administration: ML204 and AC1903 were prepared from powder in a single batch for each in vivo experiment to avoid variability. Immediately prior to injections, ML204 or AC1903 solution was placed on a heated shaker at 48° C. and 800 RPM. Vehicle was prepared in the same fashion. Injection volume was determined by body weight (2 mL vehicle/compound per kg body weight). Body weight was measured at the time of injection.
Urine collection and assay: For urine collections, rats were housed individually in a metabolic cage supplied with food and water. Urine was collected into a 50 mL falcon tube for 24 hours. Total urine volume was measured and then centrifuged at 3,200 rcf for 10 min at 4° C. Albumin quantification was done according to previously published protocol (11), involving multiple dilutions of urine from each animal compared to Bovine Serum Albumin (BSA) standards. Coumassie Blue stained gels were quantified by densitometry using ImageJ software. As an additional control, the rat ELISA Albumin kit (Exocell) was used for albumin quantification according to the manufacturer's recommendations and yielded the same results. Urine protein was measured using QuanTtest® Red Total Protein Assay System (Quantimetrix, Redondo Beach, Calif.) and expressed as mg protein/24 hours. […]

Regarding `c1ccc(Cn2c(NCc3ccco3)nc3ccccc32)cc1` [AC1903], in the data set on podocytes, the “AngII-induced ROS” value is “blocked”. In addition, the “numbers of podocytes per glomerulus” value in the data set on AT1R Tg rats (AC1903-treated AT1R Tg rats) is on record as “approximately 120 podocytes/glom”. In the data set on AT1R Tg rats (AC1903 treatment), the BUN entry was “did not affect”, the body weight result is given as “did not affect” and the creatinine result was “did not affect”. For the same molecule, in the data set on AT1R Tg rats (Advanced, AC1903 50 mg/kg), the “podocyte numbers compared to vehicle treated controls” value is listed as “preserved numbers of podocytes” and the pseudocyst formation result was “significant reduction in pseudocyst formation”. Moreover, in the data set on AT1R Tg rats (Advanced, AC1903 50 mg/kg twice daily i.p. for 7 days), the proteinuria entry is “sufficient to suppress severe proteinuria”.

Regarding `Cc1cc(N2CCCCC2)nc2ccccc12` [ML204, reference compound], the proteinuria progression result with AT1R Tg rats (Advanced cohort, 25 mg/kg twice daily i.p., at 7 days and 14 days) is “suppressed progression of proteinuric disease”. The podocyte pseudocyst formation entry in the data set on AT1R Tg rats (Advanced, ML204) is listed as “prevented pseudocyst formation”. Moreover, the “podocyte numbers (morphometric analysis)” value in the data set on AT1R Tg rats (Advanced, ML204 vs PBS-treated Tg rats) is “prevented podocyte loss”. Also, in the data set on AT1R Tg rats (ML204 treatment), the BUN result is “did not affect”, the body weight entry was “did not affect” and the creatinine entry is given as “did not affect”. For the same molecule, the proteinuria entry with AT1R Tg rats (Onset cohort, ML204 twice daily i.p. for 7 days) is “complete suppression of proteinuria down to baseline levels”.
